Measurements published in paper PMC8599855, “Detection of cancer stem cells by EMT-specific biomarker-based peptide ligands” (Scientific Reports, 2021).

Assays:
SAS cells [1] = test: Fluorescence-based peptide binding assay (confocal microscopy); assay type: cell-based, human; details: 50 ng/μl labeled peptide, 37 °C; for Cell uptake: fluorescent signal in cytoplasm: one hour and later
Description: Figure 1 Evaluation of peptide binding activity to SAS cells. (a) IF analysis of F7 peptide and SP peptide binding to SAS cells. […] Red: Lissamine Rhodamine labeled F7 peptide, Green: FITC labeled SP peptide, Blue: DAPI; BF, bright field; Scale bar, 10 μm. (b) The kinetics of F7 peptide binding to SAS-EGFP-Fluc cells. Cells were incubated in the presence of 50 ng/μl peptides at 37 °C for the indicated periods of time. (c) The kinetics of SP peptide binding to SAS-E2-crimson-P2A::ttksr39 cells at indicated time points.
SAS-EGFP-Fluc and SAS-E2-crimson-P2A::ttksr39 were seeded on 8-well chamber slides and incubated with fluorescein labeled F7 peptide and SP peptide respectively for the different time points (0, 0.25, 0.5, 1, 2, 4, 8, 12 and 24 h). HEK293 cell lines without expression of vimentin and nucleolin served as a negative control for the specificity of peptides. After removal of the medium and a PBS rinse, the cells were fixed with 3.7% paraformaldehyde for 10 min followed by PBS washing for 3 times. Subsequently, all slides were mounted with VECTASHIELD Mounting Medium with DAPI (cat. H-1200, Vector Labs, Burligame, CA, USA) and covered with cover glasses before visualization under a laser-scanning microscope (Zeiss LSM 880, Jena, Germany) with Zen Blue software (ZEISS, Jena, Germany).

[2] = system: SAS spheres expressing CD44; test: Peptide binding to tumor spheres (confocal microscopy); assay type: cell-based, human; details: fluorescein-labeled peptides, 24 h incubation
Source text: Figure 2 Expression of CSC markers corresponding to peptide binding. (a) Phase-contrast photomicrographs of the spheres cultured from SAS-E2-crimson-P2A::ttksr39 cell line using the ultra-low attachment plate. Right panel: adherent cells. magnification, 100×. (b) ICC results showing the expression of representative CSC marker, CD44 and EMT markers, vimentin and nucleolin in spheres (upper panel) and adherent cells (lower panel). E-cadherin is an epithelial cell marker. (c) The peptide binding to tumor spheres which highly expressed CD44. The arrow indicates the presence of F7 and SP peptide. Red: Lissamine Rhodamine labeled F7 peptide, Green: FITC labeled SP peptide, Blue: DAPI; Scale bar, 20 μm. (d) Comparison of peptides binding to spheres and adherent cells. Yellow: colocalization.
SAS cells were seeded in a 6-well cell culture plate with ultra-low attachment (Corning Costar, Tewksbury, MA, USA) at the density of 1 × 10^5 cells/well and incubated for 3–5 days in a 5% CO2 humidified incubator at 37 °C. All measurements on the SAS spheroids were carried out with a diameter of approximately 0.75 mm. For ICC-IF staining, the spheroids were fixed in 3.7% paraformaldehyde, washed with PBS and permeated with 0.1% Triton X-100 for 10 min before blocking with 20% FBS for 10 min at 37 °C, followed by the incubation with anti-CD44 antibody (GTX102111, GeneTex, Irvine, CA, USA) at 4 °C overnight. […]

EMT-induced SAS cells = test: Flow cytometry analysis of peptide binding to EMT-induced cells; assay type: cell-based, human; details: 50 ng/μl labeled peptide, 24 h, 37 °C, after Unc0642 and/or IR treatment
Description: Figure 4 Evaluation of peptide binding activity to EMT derived cells induced by Unc0642/IR. After treatment of Unc0642 or radiation, EMT derived cells were incubated for 24 h in the presence of 50 ng/μl of fluorescein-labeled F7 (a) and SP peptide (b) at 37 °C respectively. FACS analysis was performed on gated live cells and light scatter parameters were measured using the 488 nm laser. The dot plot represented the particle size (FSC) versus granularity (SSC) of the cell population. The histogram represented the number of cells from P1 and P2 regions displaying a given fluorescence signal. Right graph: the quantitative analysis in the ratio of fluorescein-labeled peptides binding to SAS cells.
The cells were treated for EMT induction as described above. Then, 50 ng/μl of F7 and SP peptides were added into the culture medium and co-incubated for 24 h. The cells were detached and fixed with 3.7% paraformaldehyde for 15 min followed by resuspension in PBS. FACS analysis was performed on gated live cells using a flow cytometer (Beckman Coulter CytoFLEX, Brea, CA, USA).

SAS xenograft tumor = test: Peptide binding in tumor after intra-tumoral injection (IF of excised tumor); assay type: in vivo, mouse; details: intra-tumoral injection on day 31, tumors excised after 24 h; Unc0642/IR-treated groups versus control; F7 in SAS-EGFP-Fluc, SP in SAS-wt tumors
Source text: Figure 5 Evaluation of peptide binding ability in SAS xenograft mouse model after the treatment of Unc0642/IR. (a) Schematic diagram for in vivo EMT induction via the treatment of Unc0642 and radiation. (b) Evaluation of the effect of Unc0642/IR in SAS-EGFP-Fluc-bearing mice by optical bioluminescence image. (c) Tumor burden of each group was monitored at indicated time points. Data represent mean ± SD (n = 5–6/group). *p < 0.05, **p < 0.01, ***p < 0.001 by Student’s t-test. ***p = 0.00058, Ctrl versus Unc0642 on day 14; *p = 0.049, Ctrl versus IR on day 18; **p = 0.0023, Ctrl versus IR on day 21; *p = 0.0179, Ctrl versus IR on day 24; *p = 0.036, Ctrl versus Unc0642 + IR on day 24. (d) The body weights of mice were recorded during the period of monitoring. Data are mean ± SD (n = 5–6/group). (e, f) Mice were given an intra-tumoral injection of peptide. At 24 h later, tumor samples were excised and the signal derived from the peptide was observed using confocal microscopy. Representative confocal micrographs of tissue sections immunolabeled with CD44. The arrowheads indicate the presence of F7 and SP peptide. Blue: DAPI. Scale bar, 20 μm. […]

[3] = 37 °C, ref previous studies; cited from earlier work
Source text: Despite the cancer cells captured by F7 or SP peptide were identified as CSCs that expressed CD44, single peptide binding cells (F7+ or SP+) and double peptides binding cells (F7+ /SP+ , as shown in Fig. 2d) were considered as different subpopulations that exist at the different stages of cancer. […] There are several possibilities for these findings. First, the permeability ...

SAS cells [4] = test: Western blot of EMT/CSC markers after in vitro induction of EMT; assay type: cell-based, human; details: TGF-β1 10 and 20 ng/ml, SAS cells, immunoblotting (Fig. S2)
Description: To induce the EMT of SAS cells, cells were seeded in 60 mm^2 dishes at the density of 1 × 10^6 cells/dish overnight and incubated with 1.25 and 10 μM Unc0642. After 24 h, cells were exposed under 2 Gy and 4 Gy of radiation by a RS2000 Series Biological Irradiator (Rad Source Technologies Inc, Buford, GA, USA) and replaced with fresh Unc0642 containing medium every 24 h. The expression of vimentin and E-cadherin were detected by western blotting.
Cultured cells were placed on ice, washed by ice-cold PBS and lysed using CytoBuster Protein Extraction Reagent (cat. 71,009, Bedford, MA, USA) containing Protease Inhibitor Cocktail Set I (cat. 539131, Millipore, Bedford, MA, USA). Cells were then scraped, collected in Eppendorf tubes and the sonicated for 30 min. The lysate was spun down at 12,000 g for 10 min at 4 °C. The protein content was measured using Bradford reagent (BIO-RAD, Hercules, CA, USA). The equal amounts of protein (40 μg) were separated in SDS-PAGE gels (30% Acrylamide/Bis Solution, 29:1, cat. 1610157, BIO-RAD, Hercules, CA, USA) and transferred to PVDF membranes (cat. NEF1002001PK, Perkin-Elmer life sciences, Boston, MA, USA). For immunoblotting, membranes were cut in terms of the molecular weight range prior to hybridization with primary antibody for vimentin (GTX100619, GeneTex, Irvine, CA, USA), nucleolin (GTX132778, GeneTex, Irvine, CA, USA), E-cadherin (GTX50757, GeneTex, Irvine, CA, USA) and b-actin (GTX109639, GeneTex, Irvine, CA, USA) overnight at 4 °C and then incubated with horseradish peroxidase HRP-conjugate goat anti-rabbit IgG (GeneTex, Irvine, CA, USA). Protein signals were visualized using a LumiFast Chemiluminescence Detection Kit (cat. JT96-K001S, T-Pro Biotechnology, Taiwan). Image capture was performed on an ImageQuant LAS4000 biomolecular image (GE healthcare life, Chicago, IL, USA). The intensities of protein bands were quantitated using ImageJ Gel Analysis program. Quantification of protein expression was performed by Image J. b-actin was used as loading control.

Row | Substance | Intracellular localisation at 24 h (SAS cells [1]) | Cell uptake: fluorescent signal in cytoplasm (SAS cells [1]) | Binding to CD44 expressing spheres [2] | Peptide binding to EMT-induced SAS cells (FACS) (EMT-induced SAS cells) | Amount of labeled peptide in tumor tissue (SAS xenograft tumor) | Stability in the presence of serum [3] | E-cadherin expression (SAS cells [4]) | Vimentin expression (SAS cells [4])
1 | DMPGTVLP [F7 peptide] | remained at the edge of nucleus and no longer moved | appeared in cytoplasm gradually and accumulated with the incubation time | able to bind and detect CSCs | increased with increasing dose of IR and Unc0642 | increased in tumor tissues | high stability | – | –
2 | SAHGTSTGVPWP [SP peptide] | remained at the edge of nucleus and no longer moved | appeared in cytoplasm gradually and accumulated with the incubation time | able to bind and detect CSCs | significantly higher in combined Unc0642- and IR-treated SAS cells | increased in tumor tissues | high stability | – | –
3 | TGF-β1: multifunctional cytokine used to induce EMT | – | – | – | – | – | – | downregulated the expression of E-cadherin | upregulated the expression of vimentin
